Results as given in patent EP4733297A1, “INTEGRIN-INHIBITING SMALL MOLECULE COMPOUND” (Antibody Therapeutics, Inc., priority 2023, dated 2024).

What was measured:
[1] = system: TGFβ activation by integrin expressed in lung fibroblasts; test: Effect on TGFβ activation: luciferase reporter coculture of lung fibroblasts and CCL64 reporter cells; assay type: cell-based, male Wistar rats
Description: In this Example, lung fibroblasts were used as integrin-expressing cells, and the effect of IBF-17, which is a compound of the present invention, on TGFβ activity was examined. Fibroblasts isolated from lungs of male Wistar rats and cultured for 7 days were seeded at 2×10^3 cells per well and incubated for 5 days. After 5 days, IBF-17 or C8 (a known αvβ1 inhibitor) was added so as to give final concentrations of 2, 20, or 200 nM, and 2 hours thereafter, TGFβ-responsive luciferase-producing reporter cells CCL64 were seeded at 2×10^4 cells and cocultured for 18 hours. After that, the cells were lysed, luciferase assay reagent (Promega Corporation) was added, and luciferase activity was measured using a luminometer. The structure of C8, which is a known αvβ1 inhibitor, is as follows. [drawing 43]

[2] = system: rat lung-derived fibroblasts; test: Differentiation of fibroblasts into myofibroblasts, α-SMA western blotting; assay type: cell-based; conditions: TGFβ stimulation 96 hours
Description: In this Example, the effect of IBF-17, which is a compound of the present invention, on differentiation of fibroblasts into myofibroblasts was examined. The medium was replaced with a serum-free medium, and rat lung-derived fibroblasts isolated in Example 2 were cultured for 24 hours. After culturing, IBF-17 was added so as to give final concentrations of 2, 20 nM, or 200 nM, and C8 was added so as to give final concentrations of 2, 20, or 200 nM, followed by reaction for 2 hours. After the reaction, recombinant human TGFβ1 was added so as to give a final concentration of 5 ng/mL, and stimulation was carried out for 96 hours to induce differentiation into myofibroblasts. After induction of differentiation, protein was extracted from the cells and western blotting was performed, a band of α-SMA, which is a differentiation marker, was detected, and the band was quantified as a relative band intensity with respect to glyceraldehyde-3-phosphate dehydrogenase (GAPDH), which is a control.
From this Example, differentiation of fibroblasts into myofibroblasts (by […] TGFβ) was evaluated using α-smooth muscle actin as marker.

[3] = system: carbon tetrachloride (CCl4) administration model; test: 8-week administration experiment in carbon tetrachloride (CCl4) administration model; assay type: in vivo, mice; conditions: oral, 8 weeks
Description: In this Example, over a period of 8 weeks, carbon tetrachloride (CCl4) for inducing fibrosis in the liver and compounds of the present invention (IBF-17, IBF-18, and IBF-20) were administered to mice, and the state of tissue fibrosis was observed.
To mice, carbon tetrachloride (diluted 4-fold with olive oil) was intraperitoneally administered at 1 mL/kg twice per week (for example, Monday and Friday, or Tuesday and Friday) for a total of 8 weeks. Throughout the entire test period, IBF-17, IBF-18, or IBF-20 was orally administered daily at 1 or 10 mg/kg twice per day (with an interval of 8 hours). After completion of the experiment, the liver was collected, and the amount of collagen was quantified by hydroxyproline measurement, and a specimen was stained with Sirius red to quantify the fibrotic area. In addition, expression of fibrosis markers, Col1a1 and Acta2 (α-SMA) genes, was analyzed by qPCR.

[4] = system: carbon tetrachloride (CCl4) administration model; test: 3-day administration experiment in carbon tetrachloride (CCl4) administration model; assay type: in vivo, mice; conditions: liver, 72 hours after CCl4; subcutaneous 1 mg/kg twice per day
Description: In this Example, carbon tetrachloride (CCl4) for inducing fibrosis in the liver was administered once to mice, and thereafter, the compound of the present invention (IBF-17) was administered for 3 days, and then the liver was collected and observed. More specifically, carbon tetrachloride (diluted 4-fold with olive oil) was intraperitoneally administered once at 2 mL/kg to mice that had been fasted for half a day from the day before the test. IBF-17 was subcutaneously administered daily at 1 mg/kg twice per day (with an interval of 8 hours), including the day of carbon tetrachloride administration. At 72 hours after carbon tetrachloride administration, the mice were dissected and the liver was collected, and expression of fibrosis marker genes (Acta2, Col1a1, Col3a1, Tgfb1, Loxl1, and Ddr2) was analyzed by qPCR.

[5] = system: NASH model; test: 8-week administration experiment in NASH model (CDAHFD diet); assay type: in vivo, mice; conditions: oral, 8 weeks
Description: In this Example, over a period of 8 weeks, while providing mice with CDAHFD (choline-deficient amino acid-restricted high-fat diet), compounds of the present invention (IBF-17, IBF-18, and IBF-20) were administered, and the state of tissue fibrosis was observed. More specifically, mice were fed with a special diet CDAHFD (Research Diets) for inducing a human NASH-like pathological condition for a total of 8 weeks, replacing with new diet twice per week (for example, Monday and Friday, or Tuesday and Friday). Throughout the entire test period, IBF-17, IBF-18, or IBF-20 was orally administered daily at 1, 3, or 10 mg/kg twice per day (with an interval of 8 hours). After completion of the experiment, the amount of collagen in the liver was quantified by hydroxyproline measurement, and, for IBF-17, in addition to staining specimens with Sirius red, which specifically stains collagen, to quantify the fibrotic area, expression of genes regarded as fibrosis markers (Acta2, Col1a1, and Timp-1) was analyzed by qPCR. In addition, body weight of each mouse during the feeding period (CDAHFD temporarily decreases at the initial stage of feeding) was measured, and the weight of the collected liver was measured.

[6] = system: unilateral ureteral obstruction (UUO) model; test: 10-day administration experiment in unilateral ureteral obstruction (UUO) model; assay type: in vivo, mice; conditions: kidney, 10 days after ligation; subcutaneous 1 or 5 mg/kg twice per day for 9 days
Description: In this Example, over a period of 10 days, the compound of the present invention (IBF-17) was administered to mice in which the ureter on one side was ligated, and the state of tissue fibrosis was observed. More specifically, mice under deep anesthesia were laparotomized, and two sites of the left ureter were ligated using a nylon thread, and the abdomen was sutured. From 1 day after ligation, IBF-17 was subcutaneously administered daily at 1 or 5 mg/kg twice per day (with an interval of 8 hours) for 9 days. At 10 days after ligation, the kidney was collected and expression of genes regarded as fibrosis markers (Acta2, Col1a1, Col3a1, Ddr2, Tgfb1, Tnc, Trpc6, and Loxl1) was analyzed by qPCR.

[7] = system: carbon tetrachloride (CCl4) administration model; test: 15-day administration experiment in carbon tetrachloride (CCl4) administration model (therapeutic); assay type: in vivo, mice; conditions: oral 5 mg/kg twice per day, 5 days per week, from week 4 of 6 weeks of CCl4
Description: In this Example, over a period of 6 weeks, carbon tetrachloride (CCl4) for inducing fibrosis in the liver was administered to mice, and the compound of the present invention (IBF-17) was administered for a total of 15 days over 3 weeks in the latter half of the test, and the state of tissue fibrosis was observed. While Example 4 is examination of a prophylactic effect in which the compound is administered from the start of the test, this Example is examination of a therapeutic effect in which the compound is administered after 3 weeks have passed since administration of carbon tetrachloride (in a state where liver fibrosis has occurred). Specifically, to mice, carbon tetrachloride (diluted 4-fold with olive oil) was intraperitoneally administered at 1 mL/kg twice per week (for example, Monday and Friday, or Tuesday and Friday) for a total of 6 weeks. From week 4 of the start of the test, IBF-17 was orally administered at 5 mg/kg twice per day (with an interval of 8 hours) for 5 days per week (Monday to Friday). After completion of the experiment, the liver was collected and the amount of collagen was quantified by hydroxyproline measurement.

[8] = system: bleomycin administration model; test: 10-day administration experiment in bleomycin administration model; assay type: in vivo, mice; conditions: oral 5 mg/kg twice per day, 5 days per week, from 1 week after bleomycin
Description: In this Example, to mice administered with bleomycin for inducing fibrosis in the lung, the compound of the present invention (IBF-17) was administered for a total of 10 days over a period of 2 weeks from 1 week after bleomycin administration, and the state of tissue fibrosis was observed.
Specifically, under deep anesthesia, the neck of mice was incised, bleomycin (diluted with physiological saline) was intratracheally administered once at 1.5 U/kg, and the neck was sutured. From 1 week after bleomycin administration (the time when fibrosis begins to occur), IBF-17 was orally administered at 5 mg/kg twice per day (with an interval of 8 hours) for 5 days per week (Monday to Friday). After completion of the experiment, the lung was collected and expression of fibrosis-related genes (Acta2, Col1a1, Col3a1, and Tnc) was analyzed by qPCR. Further, lung sections were prepared, collagen was stained by Masson-trichrome staining, and the fibrotic area was quantified.

[9] = system: interstitial pneumonia; conditions: reported July 2022; cited from earlier work
[10] = liver, 1 or 10 mg/kg twice per day

Question: For `O=C(O)C[C@H](NC(=O)CNC(=O)c1cc(O)cc(NC2=NCC(F)CN2)c1)c1cccc(S(F)(F)(F)(F)F)c1` (stereo partly drawn) [IBF-17, (3S)-3-(2-{3-[(5-fluoro-1,4,5,6-tetrahydropyrimidin-2-yl)amino]-5-hydroxybenzamido}acetamido)-3-[3-(pentafluorosulfanyl)phenyl]propanoic acid], which “activation of TGFβ (luciferase activity)” value ([1]; 200 nM) is on record?
Answer: almost completely inhibited

Question: What about the “activation of TGFβ (luciferase activity)” value ([1]; concentration range of 2 to 200 nM, coculture 18 hours) of the same compound?
Answer: suppressed activation of TGFβ in a concentration-dependent manner

Question: What about the “inhibition of differentiation of fibroblasts into myofibroblasts (α-SMA band intensity)” value ([2]; 2 nM) of the same compound?
Answer: inhibition of differentiation was observed

Question: What about the inhibition at 0.02 µM ([2]; Rattus norvegicus, Fibroblast, 20 nM, read-out: inhibition of differentiation of fibroblasts into myofibroblasts (α-SMA band intensity)) of the same compound?
Answer: ≥ 80%

Question: And the “mRNA expression of Acta2 (qPCR)” value [3, 10]?
Answer: tends to be decreased

Question: And the “mRNA expression of Col1a1 (qPCR)” value [3, 10]?
Answer: tends to be decreased

Question: What about the “amount of hydroxyproline in liver tissue” value ([3]; 1 mg/kg twice per day) of the same compound?
Answer: showed an effect

Question: And the “amount of hydroxyproline in liver tissue” value ([3]; 1 or 10 mg/kg twice per day)?
Answer: decreased the amount of hydroxyproline

Question: What about the “Sirius red-stained area of liver tissue” value ([3]; both 1 mg/kg and 10 mg/kg twice per day, versus non-administration group, decrease followed the dose) of the same compound?
Answer: decreased

Question: What about the “mRNA expression of Col1a1 (qPCR)” value [4] of the same compound?
Answer: clearly decreased

Question: And the “mRNA expression of Col3a1 (qPCR)” value [4]?
Answer: clearly decreased

Question: And the “mRNA expression of six fibrosis markers (Acta2, Col1a1, Col3a1, Tgfb1, Loxl1, Ddr2) (qPCR)” value [4]?
Answer: all of these markers were decreased

Question: And the “hydroxyproline amount of liver tissue” value ([5]; any dose (1, 3, and 10 mg/kg) twice per day, versus no administration)?
Answer: decreases in hydroxyproline amount were observed

Question: What about the “mRNA expression of fibrosis markers (Acta2, Col1a1, Timp-1) (qPCR)” value ([5]; any of 1, 3, and 10 mg/kg twice per day) of the same compound?
Answer: uniformly decreased fibrosis markers

Question: What about the “fibrotic area in tissue specimens (Sirius red)” value ([5]; any of 1, 3, and 10 mg/kg twice per day, versus non-administration group) of the same compound?
Answer: reduced the fibrotic area

Question: And the “mRNA expression of Acta2 (qPCR)” value [6]?
Answer: decreasing tendency

Question: And the “mRNA expression of Col1a1 (qPCR)” value [6]?
Answer: significant decreases

Question: And the “mRNA expression of Col3a1 (qPCR)” value [6]?
Answer: significant decreases

Question: And the “mRNA expression of Ddr2 (qPCR)” value [6]?
Answer: significant decreases

Question: And the “mRNA expression of Loxl1 (qPCR)” value [6]?
Answer: significant decreases

Question: What about the “mRNA expression of Tgfb1 (qPCR)” value [6] of the same compound?
Answer: decreasing tendency

Question: What about the “mRNA expression of Tnc (qPCR)” value [6] of the same compound?
Answer: decreasing tendency

Question: And the “mRNA expression of Trpc6 (qPCR)” value [6]?
Answer: decreasing tendency

Question: What about the “amount of hydroxyproline in mouse liver” value [7] of the same compound?
Answer: significantly decreased

Question: And the “mRNA expression of Col1a1 (qPCR)” value ([8]; lung)?
Answer: significantly decreased

Question: What about the “mRNA expression of Col3a1 (qPCR)” value ([8]; lung) of the same compound?
Answer: significantly decreased

Question: And the “fibrotic area of lung (Masson-trichrome staining)” value [8]?
Answer: significantly decreased

Question: Which “efficacy in early Phase 2a of a clinical trial” value [9] does the source give for `COCCN(CCCCc1ccc2c(n1)NCCC2)CC[C@H](Nc1ncnc2ccccc12)C(=O)O` [PLN-74809] here?
Answer: proven efficacy
